Data reported in patent US10174288B2, “Induced pluripotent stem cell model for cardiofaciocutaneous syndrome and uses thereof” (Korea Advanced Institute of Science and Technology, priority 2013, dated 2019).

Key:
Assay type in all cases: cell-based, human
[1] = test system: CFC-embryonic body; assay: Embryonic body shape under phase contrast microscope; settings: inhibitor present during CFC-embryonic body differentiation (LDN193189 100 nM, 4 days); compared with untreated CFC-embryonic body; FIG. 8
Method: The CFC-iPS fragments were distributed in the ultra-low attachment dish, followed by re-suspension in 5 ml of the embryonic body differentiation medium, which was DMED/F12 supplemented with 10% serum replacement (SR). After 4 days of suspension culture, the differentiation of a CFC-iPS-derived embryonic body (CFC-embryonic body) was induced. On day 2 and day 4 from the inducement, the CFC-embryonic body was obtained and the cell morphology was observed under phase contrast microscope. WT-iPS was cultured as the normal control by the same manner as described above, so that the differentiation of a WT-iPS-derived embryonic body (WT-embryonic body) was induced. […] 4 days after the inducement started, the CFC-embryonic body was obtained and observed under phase contrast microscope to investigate the embryonic body shape. As for the normal control, WT-iPS was cultured by the same manner as described above to induce the differentiation of a WT-iPS derived embryonic body (WT-embryonic body).

[2] = test system: p-ERK; assay: Western blotting of p-ERK in CFC-embryonic body differentiated with inhibitor; settings: 5 μM U0126, 100 nM LDN193189 during embryonic body differentiation; compared with untreated CFC-embryonic body; FIG. 7
Method: (§1) Particularly, the colony of CFC-iPS induced by the same manner as described in Example <2-1> was cut into 4 pieces by using […] tissue chopper. The CFC-iPS fragments were distributed in the ultra-low attachment dish, followed by re-suspension in 5 ml of the embryonic body differentiation medium, which was DMED/F12 supplemented with 10% serum replacement (SR). After 4 days of suspension culture, the differentiation of a CFC-iPS-derived embryonic body (CFC-embryonic body) was induced. On day 2 and day 4 from the inducement, the CFC-embryonic body was obtained and the cell morphology was observed under phase contrast microscope. WT-iPS was cultured as the normal control by the same manner as described above, so that the differentiation of a WT-iPS-derived embryonic body (WT-embryonic body) was induced. […] The concentration of the protein was measured by brad-ford assay. […] The expression levels of SMAD1, p-SMAD1, ERK1, p-ERK1, ERK2, and p-ERK2 were quantified by using Image J, the program for the measurement of the pixel intensity, by which the band intensity turned into numerical value. The relative values of p-SMAD1/SMAD1, p-ERK1/ERK1, and p-ERK2/ERK2 were calculated and then the phosphorylation levels of SMAD1, ERK1, and ERK2 were compared with those of the normal control. […]

[3] = test system: p-SMAD1; assay: Western blotting of p-SMAD1 in CFC-embryonic body differentiated with inhibitor; settings: 5 μM U0126, 100 nM LDN193189 during embryonic body differentiation; compared with untreated CFC-embryonic body; FIG. 7
Method: as §1

## N#CC(=C(N)Sc1ccccc1N)C(C#N)=C(N)Sc1ccccc1N [U0126, 1,4-diamino-2,3-dicyano-1,4-bis(2-aminophenylthio)butadiene]
[1]
  embryonic body shape: normal unbroken embryonic body shape
[2]
  level of p-ERK in CFC-embryonic body: down regulation
[3]
  level of p-SMAD1 in CFC-embryonic body: reduced
